Tested on: non-cancer cells
Assay: Toxicity to non-cancer cells
Format: cell-based
Conditions: at the concentration at which dexamethasone is used in the formulation
Source text: In the context the present invention stands with complete patentability because the formulation uses our own patented cationic lipid along side a secondary co-lipid dexamethasone, and a common, generic, glucocorticoid. The dexamethasone is not modified at all and is used as such. […] The use of dexamethasone for the targeted gene delivery to cancer is not documented in any of these papers.
Cell-Culture—MCF-7, CHO, A549 cells were purchased from National Center for Cell Sciences (Pune, India) and were mycoplasma free. Cells were cultured in DMEM medium (Sigma Chemical Co., St. Louis, Mo.) containing 10% fetal bovine serum (Sigma Chemical Co., St. Louis, Mo.) and 1% penicillin-streptomycin at […] in a humidified atmosphere of 5% CO2 in air. Cultures of 85-90% confluency were used for all of the experiments. The cells were trypsinized, counted, subcultured in 96-well plates for transfection and viability studies. The cells were allowed to adhere overnight before they were used for experiments.

How did the “toxicity to non-cancer cells” value turn out when `C[C@@H]1C[C@H]2[C@@H]3CCC4=CC(=O)C=C[C@]4(C)[C@@]3(F)[C@@H](O)C[C@]2(C)[C@@]1(O)C(=O)CO` [dexamethasone] was run?
The value was “did not induce any toxicity”.
